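Five concentrations, 48 hours, 96-well plates. At the TGI there is no net growth.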
What was measured:
Test in all cases: NCI-60 cell line screen, 48 h
A549 NSCLC = test system: A549 NSCLC
HCT-116 colon = test system: HCT-116 colon
LOX IMVI melanoma = test system: LOX IMVI melanoma
HOP-62 NSCLC = test system: HOP-62 NSCLC
SNB-75 CNS = test system: SNB-75 CNS
KM12 colon = test system: KM12 colon
SF-268 CNS = test system: SF-268 CNS
786-0 renal = test system: 786-0 renal
SNB-78 CNS = test system: SNB-78 CNS
HOP-92 NSCLC = test system: HOP-92 NSCLC
SK-MEL-28 melanoma = test system: SK-MEL-28 melanoma
NCI-H460 lung = test system: NCI-H460 lung
SK-MEL-2 melanoma = test system: SK-MEL-2 melanoma
HT29 colon = test system: HT29 colon
M14 melanoma = test system: M14 melanoma
SK-OV-3 ovarian = test system: SK-OV-3 ovarian
ACHN renal = test system: ACHN renal
CCRF-CEM leukemia = test system: CCRF-CEM leukemia
LXFL 529 NSCLC = test system: LXFL 529 NSCLC
SK-MEL-5 melanoma = test system: SK-MEL-5 melanoma
SR leukemia = test system: SR leukemia
SN12C renal = test system: SN12C renal
OVCAR-5 ovarian = test system: OVCAR-5 ovarian
UACC-62 melanoma = test system: UACC-62 melanoma
HCT-15 colon = test system: HCT-15 colon
IGROV1 ovarian = test system: IGROV1 ovarian
RXF 393 renal = test system: RXF 393 renal
HL-60(TB) leukemia = test system: HL-60(TB) leukemia
OVCAR-4 ovarian = test system: OVCAR-4 ovarian
MALME-3M melanoma = test system: MALME-3M melanoma
RPMI-8226 leukemia = test system: RPMI-8226 leukemia
EKVX NSCLC = test system: EKVX NSCLC
DLD-1 colon = test system: DLD-1 colon
SW-620 colon = test system: SW-620 colon
SF-539 CNS = test system: SF-539 CNS
TK-10 renal = test system: TK-10 renal
CAKI-1 renal = test system: CAKI-1 renal
OVCAR-3 ovarian = test system: OVCAR-3 ovarian
MOLT-4 leukemia = test system: MOLT-4 leukemia
K-562 leukemia = test system: K-562 leukemia
SF-295 CNS = test system: SF-295 CNS
M19-MEL melanoma = test system: M19-MEL melanoma
U251 CNS = test system: U251 CNS
DMS 114 small cell lung = test system: DMS 114 small cell lung
NCI-H226 lung = test system: NCI-H226 lung
OVCAR-8 ovarian = test system: OVCAR-8 ovarian
NCI-H522 lung = test system: NCI-H522 lung
HCC-2998 colon = test system: HCC-2998 colon
UO-31 renal = test system: UO-31 renal
KM20L2 colon = test system: KM20L2 colon
NCI-H23 lung = test system: NCI-H23 lung
SNB-19 CNS = test system: SNB-19 CNS
A498 renal = test system: A498 renal
UACC-257 melanoma = test system: UACC-257 melanoma
DMS 273 small cell lung = test system: DMS 273 small cell lung
COLO 205 colon = test system: COLO 205 colon

## Cc1cccc(C2SCc3nc4ccccc4n32)c1 (stereo not given)
A549 NSCLC
  TGI: > 100 µM
HCT-116 colon
  TGI: 56.7 µM
LOX IMVI melanoma
  TGI: > 100 µM
HOP-62 NSCLC
  TGI: 66.6 µM
SNB-75 CNS
  TGI: 20.7 µM
KM12 colon
  TGI: 79.8 µM
SF-268 CNS
  TGI: > 100 µM
786-0 renal
  TGI: 96.2 µM
SNB-78 CNS
  TGI: 99.4 µM
HOP-92 NSCLC
  TGI: 47.9 µM
SK-MEL-28 melanoma
  TGI: 65.7 µM
NCI-H460 lung
  TGI: > 100 µM
SK-MEL-2 melanoma
  TGI: 52.6 µM
HT29 colon
  TGI: > 100 µM
M14 melanoma
  TGI: > 100 µM
SK-OV-3 ovarian
  TGI: 72.9 µM
ACHN renal
  TGI: > 100 µM
CCRF-CEM leukemia
  TGI: > 100 µM
LXFL 529 NSCLC
  TGI: > 100 µM
SK-MEL-5 melanoma
  TGI: 28.3 µM
SR leukemia
  TGI: 64.2 µM
SN12C renal
  TGI: 96.8 µM
OVCAR-5 ovarian
  TGI: 65.8 µM
UACC-62 melanoma
  TGI: > 100 µM
HCT-15 colon
  TGI: 54.5 µM
IGROV1 ovarian
  TGI: > 100 µM
RXF 393 renal
  TGI: 43.9 µM
HL-60(TB) leukemia
  TGI: 33.5 µM
OVCAR-4 ovarian
  TGI: > 100 µM
MALME-3M melanoma
  TGI: 49.6 µM
RPMI-8226 leukemia
  TGI: > 100 µM
EKVX NSCLC
  TGI: 68.4 µM
DLD-1 colon
  TGI: 75.9 µM
SW-620 colon
  TGI: > 100 µM
SF-539 CNS
  TGI: > 100 µM
TK-10 renal
  TGI: 56.8 µM
CAKI-1 renal
  TGI: > 100 µM
OVCAR-3 ovarian
  TGI: 39.1 µM
MOLT-4 leukemia
  TGI: > 100 µM
K-562 leukemia
  TGI: > 100 µM
SF-295 CNS
  TGI: > 100 µM
M19-MEL melanoma
  TGI: 96.8 µM
U251 CNS
  TGI: 47.2 µM
DMS 114 small cell lung
  TGI: 28.3 µM
NCI-H226 lung
  TGI: 60.9 µM
OVCAR-8 ovarian
  TGI: > 100 µM
NCI-H522 lung
  TGI: 60.7 µM

## COc1ccc2c3c([nH]c2c1[N+](=O)[O-])C(C)N(Cc1ccccc1)CC3 (stereo not given)
A549 NSCLC
  TGI: > 100 µM
HCT-116 colon
  TGI: 24 µM
LOX IMVI melanoma
  TGI: > 100 µM
HOP-62 NSCLC
  TGI: 7.12 µM
KM12 colon
  TGI: > 100 µM
SF-268 CNS
  TGI: 5.83 µM
HCC-2998 colon
  TGI: > 100 µM
UO-31 renal
  TGI: > 100 µM
786-0 renal
  TGI: > 100 µM
KM20L2 colon
  TGI: > 100 µM
SNB-78 CNS
  TGI: > 100 µM
SK-MEL-28 melanoma
  TGI: 59.5 µM
NCI-H460 lung
  TGI: 14.1 µM
NCI-H23 lung
  TGI: > 100 µM
SK-MEL-2 melanoma
  TGI: > 100 µM
HT29 colon
  TGI: 13.7 µM
M14 melanoma
  TGI: 28.1 µM
ACHN renal
  TGI: > 100 µM
CCRF-CEM leukemia
  TGI: > 100 µM
SNB-19 CNS
  TGI: > 100 µM
A498 renal
  TGI: 7.71 µM
LXFL 529 NSCLC
  TGI: > 100 µM
SR leukemia
  TGI: 45.2 µM
SN12C renal
  TGI: > 100 µM
UACC-257 melanoma
  TGI: 14.5 µM
OVCAR-5 ovarian
  TGI: > 100 µM
UACC-62 melanoma
  TGI: > 100 µM
HCT-15 colon
  TGI: > 100 µM
IGROV1 ovarian
  TGI: 30.9 µM
RXF 393 renal
  TGI: 17.9 µM
HL-60(TB) leukemia
  TGI: 6.1 µM
OVCAR-4 ovarian
  TGI: > 100 µM
RPMI-8226 leukemia
  TGI: 7.56 µM
EKVX NSCLC
  TGI: > 100 µM
DLD-1 colon
  TGI: > 100 µM
SW-620 colon
  TGI: > 100 µM
SF-539 CNS
  TGI: 5.24 µM
TK-10 renal
  TGI: > 100 µM
CAKI-1 renal
  TGI: > 100 µM
OVCAR-3 ovarian
  TGI: 49 µM
MOLT-4 leukemia
  TGI: 23.4 µM
K-562 leukemia
  TGI: > 100 µM
DMS 273 small cell lung
  TGI: 11.6 µM
U251 CNS
  TGI: 8.73 µM
DMS 114 small cell lung
  TGI: > 100 µM
COLO 205 colon
  TGI: > 100 µM
NCI-H226 lung
  TGI: > 100 µM
OVCAR-8 ovarian
  TGI: > 100 µM

Source: PubChem BioAssay (NCI)
